One assay addresses T1, human type 1 glycine transporter (GlyT1) (Homo sapiens, UniProt P48067).
T1 construct: T98G cells (glioma cells) expressing human type 1 glycine transporter (GlyT1) were used; endogenous in cells; host or cells: T98G cells (human glioma cells)
T1 sequence (P48067 1-706): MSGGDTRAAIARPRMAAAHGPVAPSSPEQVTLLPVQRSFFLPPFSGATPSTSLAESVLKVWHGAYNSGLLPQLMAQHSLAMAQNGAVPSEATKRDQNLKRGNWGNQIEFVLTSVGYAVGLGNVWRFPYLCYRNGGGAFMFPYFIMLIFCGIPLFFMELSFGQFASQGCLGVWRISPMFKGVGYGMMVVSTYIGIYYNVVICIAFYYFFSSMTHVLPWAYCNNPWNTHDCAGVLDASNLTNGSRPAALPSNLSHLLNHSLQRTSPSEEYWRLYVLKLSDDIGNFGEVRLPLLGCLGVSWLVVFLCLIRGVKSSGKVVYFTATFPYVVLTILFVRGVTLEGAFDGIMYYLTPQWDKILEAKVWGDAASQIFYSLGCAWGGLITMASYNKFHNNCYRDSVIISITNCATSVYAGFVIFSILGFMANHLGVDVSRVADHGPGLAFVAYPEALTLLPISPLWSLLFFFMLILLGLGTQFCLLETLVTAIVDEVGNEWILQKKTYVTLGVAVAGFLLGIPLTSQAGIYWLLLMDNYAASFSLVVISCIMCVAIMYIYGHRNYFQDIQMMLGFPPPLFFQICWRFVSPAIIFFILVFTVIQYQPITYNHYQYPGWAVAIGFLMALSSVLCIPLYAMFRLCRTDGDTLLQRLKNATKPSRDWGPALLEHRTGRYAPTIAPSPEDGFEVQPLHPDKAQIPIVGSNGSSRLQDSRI
The experiment in a line: Glycine uptake inhibition experiment ([3H] glycine uptake in T98G cells expressing GlyT1). Format: cell-based.
Conditions: not given
The method, then:
Glycine Uptake Inhibition Experiment
A glycine uptake experiment was conducted in accordance with the method published in Neuron, 8, 927-935, 1992. In the experiment, T98G cells (glioma cells) expressing human type 1 glycine transporter (GlyT1) were used. The T98G cells were seeded in a 96-well plate at 2.0×10^4 cells/well and cultured overnight in a CO2 incubator. The test substance was dissolved in a 100% DMSO solution and then dissolved in a 10 mM HEPES buffer solution (pH 7.4) containing 150 mM sodium chloride, 1 mM calcium chloride, 5 mM potassium chloride, 1 mM magnesium chloride, 10 mM glucose and 0.2% bovine serum albumin. After removing the cell culture medium, the test substance was subjected to a 10-min pretreatment. Subsequently, the test substance and [^3H] glycine (final concentration: 250 nM) were added to the cells and reaction was performed at room temperature for 15 minutes. After the end of the reaction, the extracellular fluid was aspirated with a manifold to remove excess labeled glycine present outside the cells, and then the cells were lysed with a 0.5 M aqueous sodium hydroxide solution. The glycine content in the cells was determined by measuring the radioactivity in the cell lysate with a liquid scintillation counter. Glycine uptake in the presence of 10 μM ALX5407 was defined as non-specific uptake, and the value calculated by subtracting the amount of the non-specific uptake from the total uptake in the absence of 10 μM ALX5407 was defined as specific uptake. In addition, glycine uptake inhibitory activity (IC50 value) was calculated from an inhibition curve at the concentrations of each test substance ranging from 10^−9 to 10^−5 M. It should be noted that ALX5407 is an HCl salt of N-[(3R)-3-([1,1′-biphenyl]-4-yloxy)-3-(4-fluorophenyl)propyl]-N-methylglycine.
As usually defined, the IC50 is the concentration at which inhibition is half-maximal. High values mean a need for much substance, low ones inhibition by little substance. `O=C1N(Cc2ccc(C(F)(F)F)nc2)c2cccc(C(O)C(F)F)c2C1(F)F` (single isomer, unassigned) [Compound 161, 4-(2,2-difluoro-1-hydroxyethyl)-3,3-difluoro-1-{[6-(trifluoromethyl)pyridin-3-yl]methyl}-1,3-dihydro-2H-indol-2-one] had an IC50 of 90 nM. Compound `C[C@H](O)c1cccc2c1C(F)(F)C(=O)N2Cc1cnc(Cl)cn1` [Compound 199, 1-[(5-chloropyrazin-2-yl)methyl]-3,3-difluoro-4-[(1S)-1-hydroxyethyl]-1,3-dihydro-2H-indol-2-one] gave an IC50 of 110 nM. Compound `O=C1N(Cc2cncc(Cl)n2)c2cccc(C(O)C(F)F)c2C1(F)F` (single isomer, unassigned) [Compound 172, 1-[(6-chloropyrazin-2-yl)methyl]-4-(2,2-difluoro-1-hydroxyethyl)-3,3-difluoro-1,3-dihydro-2H-indol-2-one] gave an IC50 of 24 nM.

Turning to `C[C@H](O)c1cccc2c1C(F)(F)C(=O)N2Cc1ccnc(C#N)c1F` [Compound 173, 4-({3,3-difluoro-4-[(1S)-1-hydroxyethyl]-2-oxo-2,3-dihydro-1H-indol-1-yl}methyl)-3-fluoropyridine-2-carbonitrile], the IC50 is 19 nM.

Compound `C[C@H](O)c1cccc2c1C(F)(F)C(=O)N2Cc1cncc(OC(F)F)c1` [Compound 189, 1-{[5-(difluoromethoxy)pyridin-3-yl]methyl}-3,3-difluoro-4[(1S)-1-hydroxyethyl)-1,3-dihydro-2H-indol-2-one] gave an IC50 of 79 nM. In the case of `CCOc1ccc(CN2C(=O)C(F)(F)c3c(C(O)C(F)F)cccc32)cn1` (single isomer, unassigned) [Compound 278, 4-(2,2-difluoro-1-hydroxyethyl)-1-[(6-ethoxypyridin-3-yl)methyl]-3,3-difluoro-1,3-dehydro-2H-indol-2-one], the midpoint of inhibition, the IC50, lay at 210 nM. The same measure, in the same setting: next, `C[C@H](O)c1cccc2c1C(F)(F)C(=O)N2Cc1cnc(F)c(C#N)c1` [Compound 235, 5-({3,3-difluoro-4-[(1S)-1-hydroxyethyl]-2-oxo-2,3-dihydro-1H-indol-1-yl}methyl)-2-fluoropyridine-3-carbonitrile]: 23 nM. Compound `O=C1N(Cc2ccnc(C(F)(F)F)c2)c2cccc(C(O)C(F)F)c2C1(F)F` (single isomer, unassigned) [Compound 191, 4-(2,2-difluoro-1-hydroxyethyl)-3,3-difluoro-1-{[2-(trifluoromethyl)pyridin-4-yl]methyl}-1,3-dihydro-2H-Indol-2-one] displayed an IC50 of 29 nM.

Staying with this assay, now noted: glycine uptake inhibition.
Consider `C[C@H](O)c1cccc2c1C(F)(F)C(=O)N2Cc1cncc(C(F)F)c1` [Compound 116, 1-{[5-(difluoromethyl)pyridin-3-yl]methyl}-3,3-difluoro-4-[(1S)-1-hydroxyethyl]-1,3-dihydro-2H-indol-2-one], for which half-maximal inhibition (IC50) required 110 nM. Turning to `O=C1N(Cc2cccc(Cl)n2)c2cccc(C(O)C(F)(F)F)c2C1(F)F` (single isomer, unassigned) [Compound 8, 1-[(6-chloropyridin-2-yl)methyl]-3,3-difluoro-4-(2,2,2-trifluoro-1-hydroxyethyl)-1,3-dihydro-2H-indol-2-one], the IC50 was 800 nM. `CC(O)c1cccc2c1C(F)(F)C(=O)N2Cc1nc2ccccc2c(=O)n1C` (centres unmarked) [Compound 30, 2-{[3,3-difluoro-4-(1-hydroxyethyl)-2-oxo-2,3-dihydro-1H-indol-1-yl]methyl)-3-methylquinazolin-4(3H)-one] showed an IC50 of 54 nM. As for `C[C@H](O)c1cccc2c1C(F)(F)C(=O)N2Cc1nc2ccccc2[nH]1` [Compound 88, 1-(1H-benzimidazol-2-ylmethyl)-3,3-difluoro-4-[(1S)-1-hydroxyethyl)-1,3-dihydro-2H-indol-2-one], the IC50 was 87 nM. Take `Cn1c(CN2C(=O)C(F)(F)c3c([C@@H](O)C(F)(F)F)cccc32)cc2ccccc2c1=O` [Compound 142, 3-({3,3-difluoro-2-oxo-4-[(1R)-2,2,2-trifluoro-1-hydroxyethyl]-2,3-dihydro-1H-indol-1-yl}methyl)-2-methylisoquinan-1(2H)-one]: inhibition was half-maximal at 130 nM (IC50). Compound `COc1cncc(CN2C(=O)C(F)(F)c3c([C@H](C)O)cccc32)c1` [Compound 71, 3,3-difluoro-4-[(1S)-1-hydroxyethyl]-1-[(5-methoxypyridin-3-yl)methyl]-1,3-dihydro-2H-indol-2-one] gave an IC50 of 160 nM. In turn, `C[C@H](O)c1cccc2c1C(F)(F)C(=O)N2Cc1cccc(C(F)(F)F)n1` [Compound 67, 3,3-difluoro-4-[(1S)-1-hydroxyethyl]-1-{[6-(trifluoromethyl)pyridin-2-yl]methyl}-1,3-dihydro-2H-indol-2-one] gave an IC50 of 17 nM. Take `C[C@H](O)c1cccc2c1C(F)(F)C(=O)N2Cc1cc(C(F)(F)F)ccn1` [Compound 96, 3,3-difluoro-4-[(1S)-1-hydroxyethyl]-1-{[4-(trifluoromethyl)pyridin-2-yl]methyl}-1,3-dihydro-2H-indol-2-one]: the IC50 was 51 nM. `C[C@H](O)c1cccc2c1C(F)(F)C(=O)N2Cc1noc2ccccc12` [Compound 119, 1-(1,2-benzoxazol-3-ylmethyl)-3,3-difluoro-4-[(1S)-1-hydroxyethyl]-1,3-dihydro-2H-indol-2-one] displayed an IC50 of 77 nM.

In turn, `C[C@H](O)c1cccc2c1C(F)(F)C(=O)N2Cc1ccnc(F)c1` [Compound 42, 3,3-difluoro-1-[(2-fluoropyridin-4-yl)methyl]-4-[(1S)-1-hydroxyethyl]-1,3-dihydro-2H-indol-2-one] gave an IC50 of 50 nM. In turn, `CC(O)c1cccc2c1C(F)(F)C(=O)N2Cc1cncc(Cl)c1` (single isomer, unassigned) [Compound 6, 1-[(5-chloropyridin-3-yl)methyl]-3,3-difluoro-4-(1-hydroxyethyl)-1,3-dihydro-2H-indol-2-one] returned an IC50 of 3700 nM.

For the compound `C[C@@H](O)c1cccc2c1C(F)(F)C(=O)N2Cc1ccnc(C#N)c1` [Compound 38, 4-({3,3-difluoro-4-[(1R)-1-hydroxyethyl]-2-oxo-2,3-dihydro-1H-indol-1-yl}methyl)pyridine-2-carbonitrile], the IC50 was determined as 5300 nM.

For `O=C1N(Cc2ccccc2)c2cccc(C(O)C(F)F)c2C1(F)F` (single isomer, unassigned) [Compound 157, 1-benzyl-4-(2,2-difluoro-1-hydroxyethyl)-3,3-difluoro-1,3-dihydro-2H-indol-2-one], inhibition was half-maximal at 21 nM (IC50).

In turn, `COc1cccc(CN2C(=O)C(F)(F)c3c([C@H](C)O)cccc32)c1` [Compound 59, 3,3-difluoro-4-[(1S)-1-hydroxyethyl]-1-(3-methoxybenzyl)-1,3-dihydro-2H-indol-2-one] returned an IC50 of 18 nM. `C[C@H](O)c1cccc2c1C(F)(F)C(=O)N2Cc1cccc(Cl)c1` [Compound 55, 1-(3-chlorobenzyl)-3,3-difluoro-4-[(1S)-1-hydroxyethyl]-1,3-dihydro-2H-indol-2-one] came in with an IC50 of 2.2 nM.

The assay is the same for the next values; noted with them: table section whose head prints (μm).
`O=C1N(Cc2cc(Cl)c(F)cn2)c2cccc(C(O)C(F)F)c2C1(F)F` (single isomer, unassigned) [Compound 266, 1-[(4-chloro-5-fluoropyridin-2-yl)methyl]-4-(2,2-difluoro-1-hydroxyethyl)-3,3-difluoro-1,3-dihydro-2H-indol-2-one] displayed an IC50 of 21 nM. In the case of `N#Cc1nc(CN2C(=O)C(F)(F)c3c(C(O)C(F)F)cccc32)ccc1C(F)(F)F` (single isomer, unassigned) [Compound 270, 6-{[4-(2,2-difluoro-1-hydroxyethyl)-3,3-difluoro-2-oxo-2,3-dihydro-1H-indol-1-yl]methyl}-3-(trifluoromethyl) pyridine-2-carbonitrile], the IC50 is 8.4 nM.

Compound `O=C1N(Cc2cnccc2Cl)c2cccc(C(O)C(F)F)c2C1(F)F` (single isomer, unassigned) [Compound 260, 1-[(4-chloropyridin-3-yl)mettiyl]-4-(2,2-difluoro-1-hydroxyethyl)-3,3-difluoro-1,3-dihydro-2H-indol-2-one] gave an IC50 of 1500 nM.
